Tests used:
nitric oxide = assay: Nitric oxide production / systemic NO levels in treated patients; assay type: in vivo, human
Method: Moreover, it was observed that a few patients who received treatment with an agent of the instant invention began to develop resistance due to down-regulation of the insulin receptor. This effect was reversed by co-administering low dose aspirin (15 mg) with the agent. Upon co-administration, the production of nitric oxide returned to normal within 30 minutes of treatment. While the instant agents work through the insulin receptor, aspirin appeared to be insulin-independent and was nitric oxide mediated. Accordingly, one embodiment of the instant methods is the co-administration, i.e., simultaneous or sequential, of low dose aspirin (e.g., ranging from 5-100 mg) with an agent of the instant invention. […] Expression of maspin, a serine protease inhibitor (serpin) known to be a potent anticancer protein, is severely impaired in breast cancer tissue. […] Similarly, production of alpha interferon-a, a widely used anticancer cytokine noted for its antiproliferative and anticancer property, is severely impaired in both malignant breast cancer tissue and non-malignant neutrophils in breast cancer. As with maspin, increases in nitric oxide levels increased production of alpha-interferon to normal ranges. By administering an agent of the instant invention, the auto immunity that is T-cell induced is improved through the neutrophils.

wide variety of cancers = assay: Topical treatment of cancer patients, overall statements; assay type: in vivo, human
From the text: A total of 8,125 patients with different kinds of cancer participated in this study. These patients were divided into two groups. Blood samples were collected from 80 patients designated as Group I. These patients included 45 males between 20-65 years old, and 35 females between 25-55 years old. These patients were newly diagnosed patients with cancer who at the time of blood donation had not taken any medicine at least for 14 days and had not yet undergone any treatment of cancer including radiation or chemotherapy but opted for surgery. None of the patients had overt diabetes mellitus, systemic hypertension or suffered coronary artery disease at presentation. None of these patients had any other diagnosed life threatening condition.
Two categories of patients were included in Group II. The first category included 6,705 patients who had previously undergone all available cancer treatments including surgery, radiation and chemotherapy. At the time of participation in the study these patients had exhausted all therapeutic options and were under the care of private physicians and family members in their home. […] At the time of the participation in the study all patients, in the Group II in the second category had stopped taking treatments for cancer, such as chemotherapy and radiation, for at least 2 months. The diagnostic procedures and condition of the patients at presentation are described in Table 1. All institutionalized patients in group II were excluded from the study to avoid ambiguity. As in the case of Group I the patients with any other life threatening conditions or severe infection were also excluded from this group.
A control group of 150 patients were selected randomly from the Group II patients. […] Since the effect of the agents of the instant invention on the neutralization of IANOS antibody in vivo in cancer patients (responders) could be noticed by immunoblot technique (end-point) in 7 days, the patients in the placebo group received the vehicle for 7 days; the neutralization of the antibody and nitric oxide synthesis were determined. […]

[1] = system: insulin-activated nitric oxide synthase (IANOS); assay: Assay of IANOS of human erythrocytes; assay type: biochemical
Method: Both biologic and non-biologic materials for were screened for their ability to activate human erythrocytes IANOS. […] The protein was purified to homogeneity from an aqueous extract (pH 7.4 buffer) by the combination of DEAE cellulose chromatography and SEPHADEX® gel filtration techniques.
Insulin-activated nitric oxide synthase (IANOS) activity of the erythrocyte suspension was carried out by determining the conversion of oxyhemoglobin to methemoglobin using standard methods. Purification of insulin activated nitric oxide synthase (from human erythrocyte membranes) was carried out by DEAE cellulose chromatography.

[2] = system: maspin and alpha interferon-a; assay: Maspin and alpha interferon in breast cancer tissue and neutrophils of treated subjects; assay type: in vivo, human; details: malignant breast cancer tissue and non-malignant neutrophils in breast cancer
From the text: Expression of maspin, a serine protease inhibitor (serpin) known to be a potent anticancer protein, is severely impaired in breast cancer tissue. […] Similarly, production of alpha interferon-a, a widely used anticancer cytokine noted for its antiproliferative and anticancer property, is severely impaired in both malignant breast cancer tissue and non-malignant neutrophils in breast cancer. As with maspin, increases in nitric oxide levels increased production of alpha-interferon to normal ranges. By administering an agent of the instant invention, the auto immunity that is T-cell induced is improved through the neutrophils.

| Compound | time until production of nitric oxide returned to normal (nitric oxide; low dose aspirin (15 mg) co-administered with the agent, patients who developed resistance (insulin receptor down-regulation)) [min] | cancers in which particularly effective (wide variety of cancers; non-Hodgkin's lymphoma, brain cancer, breast cancer with mastectomy, lung cancer (non-small cell)) | comparative effect of both agents (wide variety of cancers; pancreatic cancer and bone cancer) | effect against a wide variety of cancers (wide variety of cancers; topical, cancer patients, as shown in Table 1) | activation of erythrocyte IANOS [1] | alpha interferon-a [2] | maspin [2] | systemic NO levels (nitric oxide; after administration) |
| --- | --- | --- | --- | --- | --- | --- | --- | --- |
| CC(=O)Oc1ccccc1C(=O)O [aspirin, reference compound] | ≤ 30 | – | – | – | – | – | – | – |
| insulin | – | particularly effective | equally effective | effective | potent activator | increase | increase | increase |
